Assay results taken from US10668039B2, “Methods for treatment of adenoid cystic carcinoma” (THE CHILDREN'S MEDICAL CENTER CORPORATION, priority 2016, dated 2020).
“Also recorded” adds a separate entry of the source.

How the values were obtained:
[1] = tested on: c-myb; test: In situ hybridization of whole embryos, c-myb; format: in vivo, zebrafish; details: 10 μM, treated 48-72 hpf, fixed at 72 hpf
Experimental: In situ hybridization: In situ hybridization was done for c-myb as described in North (2007). Wildtype AB zebrafish embryos were treated with RAs in the E3 water at the indicated doses during 48-72 hpf, after which point they were fixed in 4% PFA. Qualitative scoring (number of embryos with altered number of HSCs scored) of c-myb positive cells was conducted by assessing the caudal hematopoietic tissue (CHT) region by the tail.
In situ hybridization: Wildtype AB embryos from the same clutch were treated between 48-72 hpf with 10 μM retinoic acid agonists diluted in E3, fixed at 72 hpf in 4% paraformaldehyde, and processed as previously described. CHT staining in the embryos was blindly scored as high, medium, or low, and summed across 3 independent experiments as done previously. Representative images were acquired on a Nikon ZMS 18 microscope.

[2] = tested on: H3K27ac; test: ChIP-seq of short-term ACC x9 primagrafts, H3K27ac; format: in vivo, human; details: 3 days
Description: (§1) Primagraft experiments: For in vivo drug testing, ACC tumor fragments from host animals were implanted subcutaneously into the flank of nude mice (CRL: ATH/NU). Once tumors reached 125-250 mm3, mice were randomized to receive vehicle or drug diluted in 10:90 DMSO:10% hydroxypropyl-beta-cyclodextrin orally until controls reached a tumor volume endpoint of 1-2 cm3 (4-9 mice per group: x5M1 and x6, 4 treated vs. 9 vehicle controls; x9, 4 treated vs. 5 vehicle controls; x11, 5 treated vs. 8 vehicle controls). Mice were treated with ATRA (ACC x6 and x11: 4 mg/mL, 0.2 mL flat dose; ACC×9: 3 mg/mL, 0.2 mL flat dose) or isotretinoin (30 mg/mL, 0.2 mL flat dose). Tumor growth was monitored and mice weighed twice weekly and studies ended when final group reached tumor volume endpoint. No statistical methods were employed to determine the sample size, and no blinding of investigators was performed. […]
(§2) All ChIP-Seq datasets were aligned to UCSC build version hg19 of the human genome using Bowtie2 (version 2.2.1) with the following parameters: -end-to-end, —NO, -L20. […] ChIP-seq enrichment was determined as described previously in a 5 kb region (as counts per million) centered on the enriched peak regions (n=1,868) of the given MYB datasets. […]

[3] = tested on: human salivary adenoid cystic carcinoma cell; details: Chen et al. 1998; cell line said not to be bona fide ACC; cited from earlier work
[4] = tested on: MYB; test: Western blot of ACC primagrafts, MYB; format: in vivo, human; details: long-term ACC x11 and short-term (3 days) ACC x5M1 primagrafts
Description: as §1
(§3) Western blots: ACC x11 (from long-term tumor growth inhibition studies) and ACC x5M1 (from short-term kinetics studies) primagrafts were mechanically homogenized in RIPA lysis buffer (Thermo Scientific) supplemented by addition of complete protease inhibitor cocktail (Roche). Protein concentrations were determined by DC protein assay (BioRad).

[5] = tested on: MYB; test: ChIP-seq of short-term ACC x9 primagrafts, MYB binding; format: in vivo, human; details: 3 days
Description: as §1, §2

[6] = tested on: c-myb:GFP positive cells; test: Confocal imaging of CHT, c-myb:GFP positive cells; format: in vivo, zebrafish; details: 10 μM, treated 48-72 hpf, imaged at 72 hpf
Experimental: Confocal imaging: Double transgenic c-myb:GFP; lyz:dsRed or c-myb:GFP; mpeg1:mCherry embryos from the same clutch were treated between 48-72 hpf (n=4 biological replicates per treatment group) with 10 μM ATRA diluted in E3. Live 72 hpf embryos were embedded in 0.8% low-melting point agarose containing 0.04 mg/mL Tricaine and imaged on a Nikon Eclipe Ti microscope with 20× Plan-Apo DIC N.A. 0.75. CHT cells were counted in Z-stack image projections processed on Imaris software (Bitplane).

[7] = patients, 45 mg/m2 oral dose of ATRA, first day of treatment; cited from earlier work
[8] = tested on: cleaved caspase-3; test: Immunohistochemistry of ACC primagrafts, cleaved caspase-3; format: in vivo, nude mice; details: ACC x6, x9, x11 primagrafts at conclusion of long-term studies
Description: as §1
Immunohistochemistry: Sectioning and staining was carried out by the Dana-Farber/Harvard Cancer Center Specialized Histopathology Core using standard procedures on ACC x6, x9, and x11 samples (from long-term tumor growth inhibition studies). […] Primary antibody was detected using Bond Polymer Refine Detection kit. […] Images (>200 nuclei each) from three different individual primagrafts were blindly quantitated.

[9] = tested on: MYB; test: RNA-seq of short-term ACC x9 primagrafts, MYB; format: in vivo, human; details: 3 days, n=3, p<0.05
Description: as §1, with “performed. After long-term tumor growth inhibition studies were completed, the ATRA treated mice stopped receiving treatment and were maintained longer as indicated to monitor tumor maintenance after treatment cessation. For long-term tumor growth inhibition studies, ACC x6, x9, and x11 models were used and primagrafts collected at the completion of the study. Short-term kinetics studies were also undertaken with ACC x9 and x5M1 primagrafts involving 3 day ATRA treatments.” for “performed.”

[10] = tested on: RARα; test: Western blot of ACC primagrafts, RARα; format: in vivo, human; details: long-term ACC x11 and short-term (3 days) ACC x5M1 primagrafts
Description: as §1, §3

For CC(C=CC1=C(C)CCCC1(C)C)=CC=C/C(C)=C/C(=O)O [ATRA, (E)-3,7-dimethyl-9-(2,6,6-trimethyl-1-cyclo-hexen-1-yl)-2,4,6,8-nonatetraenoic acid], the “c-myb expression (staining) in the CHT” value [1] is given as “significant decrease; also recorded: decreased staining”, the “H3K27ac at translocated enhancer sites” value [2] is given as “decrease” and the “effect on cell proliferation in vitro” value [3] is given as “anti-proliferative effects”. For the same compound, the “MYB protein expression (wildtype and fusion)” value [4] was “decreases”, the “enrichment among MYB-bound regions genome-wide” value [5] was “reduced enrichment” and the “number of c-myb:GFP+ cells in the CHT” value [6] was “significant decrease; also recorded: decreased”. The median plasma concentration [7] was “approximately 1 μM”, the “cell death (cleaved caspase-3 positive nuclei)” value [8] was “induced more cell death” and the “decrease of MYB levels” value [9] was ~20%. The RARα protein expression [10] was “increased”.
